These results are taken from patent US20260166128A1, “HUMAN AMYLIN ANALOG, AND DERIVATIVE THEREOF AND USE THEREOF” (priority 2022, published 2026).

Numbered stars: 1 amine (or outer) side, 2 acyl side, 3 side chain; on linkers, the order of the positions; unused ones are H or OH. Bridge positions count the residues as written; N and C are the ends. Square brackets hold non-standard residues; d marks the D form. Side chains are listed from the residue outwards. Peptide text beside a SMILES is read from it. * marks the point of attachment. C20 diacid = O=C(O)CCCCCCCCCCCCCCCCCCC(=O)*; C18 diacid = O=C(O)CCCCCCCCCCCCCCCCC(=O)*; γGlu = O=C(O)[C@H](CCC(=O)[*:2])N[*:1]; Hyp = O=C(O)[C@@H]1C[C@@H](O)CN1; X3 = O=C(C1CCC(CN[*:1])CC1)[*:2]; Dab = NCC[C@H](N)C(=O)O; AEEA = NCCOCCOCC(=O)O

The target in this test is T1, human amylin receptor (Homo sapiens, UniProt O60896+P30988).
T1 construct: host or cells: CHO-K1/Ga15/AMY3 cells, further stably transfected with a CRE-luciferase plasmid
T1 sequence (P30988 25-474): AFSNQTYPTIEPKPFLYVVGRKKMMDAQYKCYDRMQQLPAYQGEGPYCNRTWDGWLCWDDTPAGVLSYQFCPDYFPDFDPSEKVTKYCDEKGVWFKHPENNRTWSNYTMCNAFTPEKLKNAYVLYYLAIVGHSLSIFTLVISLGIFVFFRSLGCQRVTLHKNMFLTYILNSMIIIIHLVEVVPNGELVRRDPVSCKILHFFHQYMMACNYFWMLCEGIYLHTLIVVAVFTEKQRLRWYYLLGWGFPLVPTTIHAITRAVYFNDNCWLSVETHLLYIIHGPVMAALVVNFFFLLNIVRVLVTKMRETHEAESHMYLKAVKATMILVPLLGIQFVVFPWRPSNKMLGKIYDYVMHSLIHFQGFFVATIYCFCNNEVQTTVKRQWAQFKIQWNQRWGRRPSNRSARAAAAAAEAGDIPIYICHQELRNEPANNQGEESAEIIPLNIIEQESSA
T1 sequence (O60896 24-148 partner): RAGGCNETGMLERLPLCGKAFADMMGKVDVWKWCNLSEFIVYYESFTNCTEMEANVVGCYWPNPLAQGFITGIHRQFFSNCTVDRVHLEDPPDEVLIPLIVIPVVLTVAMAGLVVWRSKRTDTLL
In words: Luciferase assay of amylin derivatives in amylin receptor/CRE-luc CHO cell line. The format is cell-based. Conditions: CHO-K1/Ga15/AMY3 CRE-luc cells, 24 hours incubation, F12 medium containing 10% FBS; read-out: EC50.

Description: The experiment was intended to detect the activity or efficacy of the amylin derivatives on a human amylin receptor in vitro by luciferase assay.
50 μL of growth medium (F12 medium containing 10% FBS) was added into each well of a white 96-well plate, and the stably transfected amylin/CRE-lue CHO cells were inoculated into the white 96-well plate at a density of about 20,000 cells/well for activity determination.

Consider `CC[C@H](C)[C@H](NC(=O)[C@@H]1CCCN1C(=O)[C@H](CCN)NC(=O)[C@H](CC(C)C)NC(=O)[C@H](CC(N)=O)NC(=O)[C@H](CC(N)=O)NC(=O)[C@H](CO)NC(=O)[C@H](CO)NC(=O)[C@H](Cc1c[nH]cn1)NC(=O)[C@H](CCCNC(=N)N)NC(=O)[C@H](CC(C)C)NC(=O)[C@H](Cc1ccccc1)NC(=O)[C@H](CC(=O)O)NC(=O)[C@H](C)NC(=O)[C@H](CC(C)C)NC(=O)[C@H](CCCNC(=N)N)NC(=O)[C@H](CCC(N)=O)NC(=O)[C@@H](NC(=O)[C@H](C)NC(=O)[C@@H]1CSSC[C@H](NC(=O)[C@H](CCCCN)NC(=O)CC[C@H](NC(=O)CCCCCCCCCCCCCCCCCCC(=O)O)C(=O)O)C(=O)N[C@@H](CC(N)=O)C(=O)N[C@@H]([C@@H](C)O)C(=O)N[C@@H](C)C(=O)N[C@@H]([C@@H](C)O)C(=O)N1)[C@@H](C)O)C(=O)N[C@@H](CC(C)C)C(=O)N1CCC[C@H]1C(=O)N1CCC[C@H]1C(=O)N[C@H](C(=O)N[C@@H](CC(N)=O)C(=O)N[C@H](C(=O)NCC(=O)N[C@@H](CO)C(=O)N[C@@H](CC(N)=O)C(=O)N[C@H](C(=O)N1CCC[C@H]1C(N)=O)[C@@H](C)O)C(C)C)[C@@H](C)O` [PD169] ({C20 diacid-γGlu}-KCNTATCATQRLADFLRHSSNNL[Dab]PILPPTNVGSNTP-NH2; disulfide 2-7 (inferred)), for which the EC50 came out at 0.039 nM.

Turning to `CC[C@H](C)[C@H](NC(=O)[C@@H]1CCCN1C(=O)CNC(=O)[C@H](CC(C)C)NC(=O)[C@H](CC(N)=O)NC(=O)[C@H](CCCCNC(=O)CC[C@H](NC(=O)CCCCCCCCCCCCCCCCC(=O)O)C(=O)O)NC(=O)[C@H](CO)NC(=O)[C@H](CO)NC(=O)[C@H](Cc1c[nH]cn1)NC(=O)[C@H](CCCNC(=N)N)NC(=O)[C@H](CC(C)C)NC(=O)[C@H](Cc1ccccc1)NC(=O)[C@H](CC(=O)O)NC(=O)[C@H](C)NC(=O)[C@H](CC(C)C)NC(=O)[C@H](CCCNC(=N)N)NC(=O)[C@H](CCC(N)=O)NC(=O)[C@@H](NC(=O)[C@H](C)NC(=O)[C@@H]1CSSC[C@H](NC(=O)[C@@H](N)CCCNC(=N)N)C(=O)N[C@@H](CC(N)=O)C(=O)N[C@@H]([C@@H](C)O)C(=O)N[C@@H](C)C(=O)N[C@@H]([C@@H](C)O)C(=O)N1)[C@@H](C)O)C(=O)N[C@@H](CC(C)C)C(=O)N1CCC[C@H]1C(=O)N1CCC[C@H]1C(=O)N[C@H](C(=O)N[C@@H](CC(N)=O)C(=O)N[C@H](C(=O)NCC(=O)N[C@@H](CO)C(=O)N[C@@H](CC(N)=O)C(=O)N[C@H](C(=O)N1C[C@H](O)C[C@H]1C(N)=O)[C@@H](C)O)C(C)C)[C@@H](C)O` [PD092] (H-RCNTATCATQRLADFLRHSSK([γGlu-C18 diacid])NLGPILPPTNVGSNT[Hyp]-NH2; disulfide 2-7), the EC50 stood at 0.016 nM. The result for `CC[C@H](C)[C@H](NC(=O)[C@@H]1CCCN1C(=O)CNC(=O)[C@H](Cc1ccccc1)NC(=O)[C@H](CC(N)=O)NC(=O)[C@H](CC(N)=O)NC(=O)[C@H](CO)NC(=O)[C@H](CO)NC(=O)[C@H](Cc1c[nH]cn1)NC(=O)[C@@H](NC(=O)[C@H](CC(C)C)NC(=O)[C@H](Cc1ccccc1)NC(=O)[C@H](CC(N)=O)NC(=O)[C@H](C)NC(=O)[C@H](CC(C)C)NC(=O)[C@H](CCCNC(=N)N)NC(=O)[C@H](CCC(N)=O)NC(=O)[C@@H](NC(=O)[C@H](C)NC(=O)[C@@H]1CSSC[C@H](NC(=O)[C@H](CCCCN)NC(=O)CC[C@H](NC(=O)CCCCCCCCCCCCCCCCCCC(=O)O)C(=O)O)C(=O)N[C@@H](CC(N)=O)C(=O)N[C@@H]([C@@H](C)O)C(=O)N[C@@H](C)C(=O)N[C@@H]([C@@H](C)O)C(=O)N1)[C@@H](C)O)C(C)C)C(=O)N[C@@H](CC(C)C)C(=O)N1CCC[C@H]1C(=O)N1CCC[C@H]1C(=O)N[C@H](C(=O)N[C@@H](CC(N)=O)C(=O)N[C@H](C(=O)NCC(=O)N[C@@H](CO)C(=O)N[C@@H](CC(N)=O)C(=O)N[C@H](C(=O)N[C@@H](Cc1ccc(O)cc1)C(N)=O)[C@@H](C)O)C(C)C)[C@@H](C)O` [PD156] ({C20 diacid-γGlu}-KCNTATCATQRLANFLVHSSNNFGPILPPTNVGSNTY-NH2; disulfide 2-7 (inferred)) reads 0.029 nM; that for `CC[C@H](C)[C@H](NC(=O)[C@@H]1CCCN1C(=O)C1CCC(CNC(=O)[C@H](CC(C)C)NC(=O)[C@H](CC(N)=O)NC(=O)[C@H](CC(N)=O)NC(=O)[C@H](CO)NC(=O)[C@H](CO)NC(=O)[C@H](Cc2c[nH]cn2)NC(=O)[C@H](CCCNC(=N)N)NC(=O)[C@H](CC(C)C)NC(=O)[C@H](Cc2ccccc2)NC(=O)[C@H](CC(=O)O)NC(=O)[C@H](C)NC(=O)[C@H](CC(C)C)NC(=O)[C@H](CCCNC(=N)N)NC(=O)[C@H](CCC(N)=O)NC(=O)[C@@H](NC(=O)[C@H](C)NC(=O)[C@@H]2CSSC[C@H](NC(=O)[C@H](CCCCN)NC(=O)CC[C@H](NC(=O)CCCCCCCCCCCCCCCCCCC(=O)O)C(=O)O)C(=O)N[C@@H](CC(N)=O)C(=O)N[C@@H]([C@@H](C)O)C(=O)N[C@@H](C)C(=O)N[C@@H]([C@@H](C)O)C(=O)N2)[C@@H](C)O)CC1)C(=O)N[C@@H](CC(C)C)C(=O)N1CCC[C@H]1C(=O)N1CCC[C@H]1C(=O)N[C@H](C(=O)N[C@@H](CC(N)=O)C(=O)N[C@H](C(=O)NCC(=O)N[C@@H](CO)C(=O)N[C@@H](CC(N)=O)C(=O)N[C@H](C(=O)N1CCC[C@H]1C(N)=O)[C@@H](C)O)C(C)C)[C@@H](C)O` (stereo partly shown) [PD173] ({C20 diacid-γGlu}-KCNTATCATQRLADFLRHSSNNL[X3]PILPPTNVGSNTP-NH2; disulfide 2-7), 0.064 nM; that for `CC[C@H](C)[C@H](NC(=O)[C@@H]1CCCN1C(=O)CNC(=O)[C@H](CC(C)C)NC(=O)[C@H](CC(N)=O)NC(=O)[C@H](CC(N)=O)NC(=O)[C@H](CO)NC(=O)[C@H](CO)NC(=O)[C@H](Cc1c[nH]cn1)NC(=O)[C@H](CCCNC(=N)N)NC(=O)[C@H](CC(C)C)NC(=O)[C@H](Cc1ccccc1)NC(=O)[C@H](CC(=O)O)NC(=O)[C@H](C)NC(=O)[C@H](CC(C)C)NC(=O)[C@H](CCCNC(=N)N)NC(=O)[C@H](CCC(N)=O)NC(=O)[C@@H](NC(=O)[C@H](C)NC(=O)[C@@H]1CSSC[C@H](NC(=O)[C@H](CCCCN)NC(=O)CC[C@H](NC(=O)CCCCCCCCCCCCCCCCC(=O)O)C(=O)O)C(=O)N[C@@H](CC(N)=O)C(=O)N[C@@H]([C@@H](C)O)C(=O)N[C@@H](C)C(=O)N[C@@H]([C@@H](C)O)C(=O)N1)[C@@H](C)O)C(=O)N[C@@H](CC(C)C)C(=O)N1CCC[C@H]1C(=O)N1CCC[C@H]1C(=O)N[C@H](C(=O)N[C@@H](CC(N)=O)C(=O)N[C@H](C(=O)NCC(=O)N[C@@H](CO)C(=O)N[C@@H](CC(N)=O)C(=O)N[C@H](C(=O)N1C[C@H](O)C[C@H]1C(N)=O)[C@@H](C)O)C(C)C)[C@@H](C)O` [PD124] ({C18 diacid-γGlu}-KCNTATCATQRLADFLRHSSNNLGPILPPTNVGSNT[Hyp]-NH2; disulfide 2-7), 0.008 nM. The value for `CC[C@H](C)[C@H](NC(=O)[C@@H]1CCCN1C(=O)CNC(=O)[C@H](CC(C)C)NC(=O)[C@H](CC(N)=O)NC(=O)[C@H](CC(N)=O)NC(=O)[C@H](CCCCNC(=O)COCCOCCNC(=O)COCCOCCNC(=O)CC[C@H](NC(=O)CCCCCCCCCCCCCCCCCCC(=O)O)C(=O)O)NC(=O)[C@H](CO)NC(=O)[C@H](Cc1c[nH]cn1)NC(=O)[C@H](CCCNC(=N)N)NC(=O)[C@H](CC(C)C)NC(=O)[C@H](Cc1ccccc1)NC(=O)[C@H](CC(=O)O)NC(=O)[C@H](C)NC(=O)[C@H](CC(C)C)NC(=O)[C@H](CCCNC(=N)N)NC(=O)[C@H](CCC(N)=O)NC(=O)[C@@H](NC(=O)[C@H](C)NC(=O)[C@@H]1CSSC[C@H](NC(=O)[C@@H](N)CCCNC(=N)N)C(=O)N[C@@H](CC(N)=O)C(=O)N[C@@H]([C@@H](C)O)C(=O)N[C@@H](C)C(=O)N[C@@H]([C@@H](C)O)C(=O)N1)[C@@H](C)O)C(=O)N[C@@H](CC(C)C)C(=O)N1CCC[C@H]1C(=O)N1CCC[C@H]1C(=O)N[C@H](C(=O)N[C@@H](CC(N)=O)C(=O)N[C@H](C(=O)NCC(=O)N[C@@H](CO)C(=O)N[C@@H](CC(N)=O)C(=O)N[C@H](C(=O)N1C[C@H](O)C[C@H]1C(N)=O)[C@@H](C)O)C(C)C)[C@@H](C)O` [PD095] (H-RCNTATCATQRLADFLRHSK([AEEA-AEEA-γGlu-C20 diacid])NNLGPILPPTNVGSNT[Hyp]-NH2; disulfide 2-7) was 0.047 nM; that for `CC[C@H](C)[C@H](NC(=O)[C@@H]1CCCN1C(=O)CNC(=O)[C@H](CC(C)C)NC(=O)[C@H](CCCCNC(=O)CC[C@H](NC(=O)CCCCCCCCCCCCCCCCCCC(=O)O)C(=O)O)NC(=O)[C@H](CC(N)=O)NC(=O)[C@H](CO)NC(=O)[C@H](CO)NC(=O)[C@H](Cc1c[nH]cn1)NC(=O)[C@H](CCCNC(=N)N)NC(=O)[C@H](CC(C)C)NC(=O)[C@H](Cc1ccccc1)NC(=O)[C@H](CC(=O)O)NC(=O)[C@H](C)NC(=O)[C@H](CC(C)C)NC(=O)[C@H](CCCNC(=N)N)NC(=O)[C@H](CCC(N)=O)NC(=O)[C@@H](NC(=O)[C@H](C)NC(=O)[C@@H]1CSSC[C@H](NC(=O)[C@@H](N)CCCNC(=N)N)C(=O)N[C@@H](CC(N)=O)C(=O)N[C@@H]([C@@H](C)O)C(=O)N[C@@H](C)C(=O)N[C@@H]([C@@H](C)O)C(=O)N1)[C@@H](C)O)C(=O)N[C@@H](CC(C)C)C(=O)N1CCC[C@H]1C(=O)N1CCC[C@H]1C(=O)N[C@H](C(=O)N[C@@H](CC(N)=O)C(=O)N[C@H](C(=O)NCC(=O)N[C@@H](CO)C(=O)N[C@@H](CC(N)=O)C(=O)N[C@H](C(=O)N1C[C@H](O)C[C@H]1C(N)=O)[C@@H](C)O)C(C)C)[C@@H](C)O` [PD086] (H-RCNTATCATQRLADFLRHSSNK([γGlu-C20 diacid])LGPILPPTNVGSNT[Hyp]-NH2; disulfide 2-7) was 0.033 nM.

A word on the EC50: it is the concentration needed to bring the measured effect to its halfway point.
